Source: article PMC12514841 (Protein Science : A Publication of the Protein Society, 2025)
“And” between values parts separate entries of the source, which are not always exact repeats. Equal entries are not always repeated.

How the values were obtained:
Type in all cases: biochemical
[1] = biological target: T1, BlaC I105Y-S130G (Mycobacterium tuberculosis, UniProt P9WKD3, I117Y/S142G); settings: pH 6.4
[2] = biological target: BlaC I105G (Mycobacterium tuberculosis, UniProt P9WKD3, I117G); settings: pH 6.4
[3] = biological target: T2, BlaC I105G-G132N (Mycobacterium tuberculosis, UniProt P9WKD3, G144N/I117G)
[4] = biological target: BlaC G132N (Mycobacterium tuberculosis, UniProt P9WKD3, G132N/G144N)
[5] = biological target: BlaC I105Y (Mycobacterium tuberculosis, UniProt P9WKD3, I117Y); settings: pH 6.4
[6] = biological target: BlaC S130G (Mycobacterium tuberculosis, UniProt P9WKD3, S142G)
[7] = biological target: T2, BlaC I105G-G132N; remark: listed apart in the source
[8] = biological target: T1, BlaC I105Y-S130G

CC1(C)S[C@@H]2[C@H](NC(=O)[C@H](N)c3ccccc3)C(=O)N2[C@H]1C(=O)O [Ampicillin, ampicillin]
KMapp [1]: 813 ± 132 µM
k cat [1]: 17 ± 1 and 17 ± 1 s^−1
k cat /K M ^app relative to the wild-type [1]: 0.270 ± 0.005
k cat/K M ^app [1]: 0.057 ± 0.001 and 0.057 ± 0.001 μM^−1 s^−1
kcat [1]: 23 ± 3 s⁻¹
kcat/KMapp [1]: 29000 ± 6000 M⁻¹ s⁻¹
kcat/KMapp relative to the wild-type [1]: 0.14 ± 0.03
KMapp [2]: 31 ± 6 µM
k cat [2]: 3.95 ± 0.04 and 3.95 ± 0.04 s^−1
k cat /K M ^app relative to the wild-type [2]: 1.00 ± 0.05
k cat/K M ^app [2]: 0.21 ± 0.01 and 0.21 ± 0.01 μM^−1 s^−1
kcat [2]: 6.0 ± 0.4 s⁻¹
kcat/KMapp [2]: 210000 ± 40000 M⁻¹ s⁻¹
kcat/KMapp relative to the wild-type [2]: 1.00 ± 0.19
factor by which the magnitude of positive epistasis diminished in MES buffer [3]: 7.4
KMapp ([3]; pH 6.4): 183 ± 21 µM
k cat ([3]; pH 6.4): 18 ± 1 and 18 ± 1 s^−1
k cat /K M ^app relative to the wild-type ([3]; pH 6.4): 0.95 ± 0.05
k cat/K M ^app ([3]; pH 6.4): 0.20 ± 0.01 and 0.20 ± 0.01 μM^−1 s^−1
kcat ([3]; pH 6.4): 54 ± 2 s⁻¹
kcat/KMapp ([3]; pH 6.4): 300000 ± 40000 M⁻¹ s⁻¹
kcat/KMapp relative to the wild-type ([3]; pH 6.4): 1.42 ± 0.05
KMapp ([4]; pH 6.4): 282 ± 9 µM
k cat ([4]; pH 6.4): 33 ± 12 and 33 ± 12 s^−1
k cat /K M ^app relative to the wild-type ([4]; pH 6.4): 0.10 ± 0.05
k cat/K M ^app ([4]; pH 6.4): 0.02 ± 0.01 and 0.02 ± 0.01 μM^−1 s^−1
kcat ([4]; pH 6.4): 61 ± 1 s⁻¹
kcat/KMapp ([4]; pH 6.4): 220000 ± 10000 M⁻¹ s⁻¹
kcat/KMapp relative to the wild-type ([4]; pH 6.4): 1.04 ± 0.05
KMapp [5]: 89 ± 7 µM
k cat [5]: 48 ± 1 and 48 ± 1 s^−1
k cat /K M ^app relative to the wild-type [5]: 4.43 ± 0.1
k cat/K M ^app [5]: 0.98 ± 0.02 and 0.98 ± 0.02 μM^−1 s^−1
kcat [5]: 28 ± 1 s⁻¹
kcat/KMapp [5]: 320000 ± 30000 M⁻¹ s⁻¹
kcat/KMapp relative to the wild-type [5]: 1.52 ± 0.14
fold decrease in k cat/K M ^app compared to the wild-type [6]: approximately 30 fold
fold higher activity in MES than in phosphate buffer [6]: roughly 5 fold
k cat fold lower than for wild-type BlaC [6]: 8 fold
k cat times higher than for wild-type BlaC [6]: 2.5 times
KMapp ([6]; pH 6.4): 588 µM
k cat ([6]; pH 6.4): 1.7 ± 1 and 1.7 ± 1 s^−1
k cat /K M ^app relative to the wild-type ([6]; pH 6.4): 0.03 ± 0.01
k cat/K M ^app ([6]; pH 6.4): 0.007 ± 0.001 and 0.007 ± 0.001 μM^−1 s^−1
kcat ([6]; pH 6.4): 21 ± 1 s⁻¹
kcat/KMapp ([6]; pH 6.4): 35000 ± 1000 M⁻¹ s⁻¹
kcat/KMapp relative to the wild-type ([6]; pH 6.4): 0.165 ± 0.005

CC1(C)S[C@@H]2[C@H](NC(=O)C(C(=O)O)c3ccccc3)C(=O)N2[C@H]1C(=O)O (stereo partly shown) [Carbenicillin, carbenicillin]
K M ^app [1]: 21 ± 3 µM
k cat [1]: 2.7 ± 0.2 s⁻¹
k cat /K M ^app relative to the wild-type [1]: 1.4 ± 0.2
k cat/K M ^app [1]: 0.13 ± 0.02 µM⁻¹ s⁻¹
K M ^app [2]: 1.5 ± 0.4 µM
k cat [2]: 0.12 ± 0.01 s⁻¹
k cat /K M ^app relative to the wild-type [2]: 0.90 ± 0.04
k cat/K M ^app [2]: 0.081 ± 0.004 µM⁻¹ s⁻¹
K M ^app ([3]; pH 6.4): 7.0 ± 0.9 µM
k cat ([3]; pH 6.4): 0.96 ± 0.07 s⁻¹
k cat /K M ^app relative to the wild-type ([3]; pH 6.4): 1.6 ± 0.2
k cat/K M ^app ([3]; pH 6.4): 0.14 ± 0.02 µM⁻¹ s⁻¹
times decrease in catalytic efficiency (k cat/K M ^app) versus the wild-type [4]: 13 times
K M ^app ([4]; pH 6.4): 224 ± 11 µM
k cat ([4]; pH 6.4): 1.62 ± 0.02 s⁻¹
k cat /K M ^app relative to the wild-type ([4]; pH 6.4): 0.080 ± 0.004
k cat/K M ^app ([4]; pH 6.4): 0.0072 ± 0.0004 µM⁻¹ s⁻¹
K M ^app [5]: 1.5 ± 1 µM
k cat [5]: 2.0 ± 0.1 s⁻¹
k cat /K M ^app relative to the wild-type [5]: 14.9 ± 0.8
k cat/K M ^app [5]: 1.34 ± 0.07 µM⁻¹ s⁻¹
K M ^app ([6]; pH 6.4): 72 ± 5 µM
k cat ([6]; pH 6.4): 1.2 ± 0.1 s⁻¹
k cat /K M ^app relative to the wild-type ([6]; pH 6.4): 0.22 ± 0.01
k cat/K M ^app ([6]; pH 6.4): 0.020 ± 0.001 µM⁻¹ s⁻¹

O=C(O)[C@H]1/C(=C/CO)O[C@@H]2CC(=O)N21 [Clavulanic acid, clavulanic acid]
course of residual activity during incubation [7]: initially a slight drop in activity, followed by a swift recovery
incubation time after which the enzyme is fully inhibited [8]: 2 h
state of the enzyme after 24 h of incubation [8]: stays fully inhibited
activity ([8]; read-out: recovery of activity, of the control activity): 63%

O=C(Cc1cccs1)N[C@@H]1C(=O)N2C(C(=O)O)=C(/C=C/c3ccc([N+](=O)[O-])cc3[N+](=O)[O-])CS[C@H]12 [Nitrocefin, nitrocefin]
k cat [1]: 21 ± 7 and 21 ± 7 s^−1
k cat /K M ^app relative to the wild-type [1]: 0.08 ± 0.04
kcat [1]: 13 ± 4 s⁻¹ and 13 ± 1 s⁻¹
K M ^app [2]: 240 ± 40 µM
k cat [2]: 79 ± 5 s⁻¹
k cat /K M ^app relative to the wild-type [2]: 0.68 ± 0.04
k cat/K M ^app [2]: 0.34 ± 0.02 µM⁻¹ s⁻¹
K M ^app ([3]; pH 6.4): 115 ± 1 µM
k cat ([3]; pH 6.4): 41 ± 1 s⁻¹
k cat /K M ^app relative to the wild-type ([3]; pH 6.4): 0.71 ± 0.01
k cat/K M ^app ([3]; pH 6.4): 0.357 ± 0.005 µM⁻¹ s⁻¹
K M ^app ([4]; pH 6.4): 210 ± 30 µM
k cat ([4]; pH 6.4): 18 ± 2 s⁻¹
k cat /K M ^app relative to the wild-type ([4]; pH 6.4): 0.16 ± 0.04
k cat/K M ^app ([4]; pH 6.4): 0.08 ± 0.02 µM⁻¹ s⁻¹
K M ^app [5]: 18 ± 1 µM
k cat [5]: 39 ± 10 s⁻¹
k cat /K M ^app relative to the wild-type [5]: 4.2 ± 0.2
k cat/K M ^app [5]: 2.1 ± 0.1 µM⁻¹ s⁻¹
fold decrease in k cat/K M ^app compared to the wild-type [6]: approximately 30 fold
K M ^app ([6]; pH 6.4): 358 ± 4 µM
k cat ([6]; pH 6.4): 5 ± 1 s⁻¹
k cat /K M ^app relative to the wild-type ([6]; pH 6.4): 0.03 ± 0.01
k cat/K M ^app ([6]; pH 6.4): 0.014 ± 0.003 µM⁻¹ s⁻¹
